In ChEMBL document CHEMBL6074703, “BODIPYS Based Fluorescent Markers To Monitor Autophagic Lysosomes and Lipid Droplets in TNBC” (ACS Med Chem Lett, 2024):
The source made the active and inactive calls. No cut-off for these calls is given here.

What was measured:
[1] = Drug uptake in human MDA-MB-231 cells at 20 uM measured after 6 hrs by confocal microscopy based analysis; assay type: ADME, cell-based; settings: mda-mb-231, 6 h
MDA-MB-231 [2] = test: Antiproliferative activity against human MDA-MB-231 cells assessed as reduction in cell viability measured after 48 hrs under light condition by MTT assay; assay type: functional, cell-based; settings: MDA-MB-231, 48 h
MDA-MB-231 [3] = test: Antiproliferative activity against human MDA-MB-231 cells assessed as reduction in cell viability measured after 48 hrs under light condition in presence of chloroquine by MTT assay; assay type: functional, cell-based; settings: MDA-MB-231, 48 h
[4] = Selectivity ratio of IC50 for human MDA-MB-231 cells assessed as reduction in cell viability measured after 48 hrs under dark condition in presence of chloroquine to IC50 human MDA-MB-231 cells assessed as reduction in cell viability measured after 48 hrs under light condition in presence of chloroquine; assay type: functional
[5] = Drug uptake in human MDA-MB-231 cells at 20 uM measured after 24 hrs by confocal microscopy based analysis; assay type: ADME, cell-based; settings: mda-mb-231, 24 h
MDA-MB-231 [6] = test: Induction of ROS response in human MDA-MB-231 cells by measuring green fluorescence at 10 uM incubated for 3 hrs dark condition by H2DCFDA staining based confocal microscopy analysis; assay type: functional, cell-based
MDA-MB-231 [7] = test: Antiproliferative activity against human MDA-MB-231 cells assessed as reduction in cell viability measured after 48 hrs under dark condition in presence of chloroquine by MTT assay; assay type: functional, cell-based; settings: MDA-MB-231, 48 h
[8] = Selectivity ratio of IC50 for human MDA-MB-231 cells assessed as reduction in cell viability measured after 48 hrs under dark condition to IC50 human MDA-MB-231 cells assessed as reduction in cell viability measured after 48 hrs under light condition; assay type: functional
MDA-MB-231 [9] = test: Induction of ROS response in human MDA-MB-231 cells by measuring green fluorescence at 10 uM incubated for 3 hrs under light 24J/cm2 irradiation by H2DCFDA staining based confocal microscopy analysis; assay type: functional, cell-based
MDA-MB-231 [10] = test: Induction of autophagy in human MDA-MB-231 cells assessed as increase in calcium ion release in cytoplasm by measuring blue fluorescence at 10 uM incubated for 3 hrs followed by dark incubation by Fura-2 dye based confocal microscopy based analysis; assay type: functional, cell-based
MDA-MB-231 [11] = test: Antiproliferative activity against human MDA-MB-231 cells assessed as reduction in cell viability measured after 48 hrs under dark condition by MTT assay; assay type: functional, cell-based; settings: MDA-MB-231, 48 h
[12] = Drug localization in lysosome of human MDA-MB-231 cells assessed as colocalization at 20 uM incubated for 3 hrs by lyso-tracker blue staining based confocal microscopy analysis; assay type: ADME, subcellular; settings: mda-mb-231, 3 h
MDA-MB-231 [13] = test: Induction of autophagy in human MDA-MB-231 cells assessed as increase in green fluorescence at 20 uM under light irradiation by confocal microscopy based analysis; assay type: functional, cell-based
[14] = Drug localization in lysosome of human MDA-MB-231 cells assessed as colocalization at 20 uM incubated for 3 hrs by MDH staining based confocal microscopy analysis; assay type: ADME, subcellular; settings: mda-mb-231, 3 h

SMILES | Drug uptake [1] | IC50 (MDA-MB-231 [2]) [µM] | IC50 (MDA-MB-231 [3]) [µM] | Ratio IC50 [4] | Drug uptake [5] | Activity (MDA-MB-231 [6]) | IC50 (MDA-MB-231 [7]) [µM] | Ratio IC50 [8] | Activity (MDA-MB-231 [9]) | Activity (MDA-MB-231 [10]) | IC50 (MDA-MB-231 [11]) [µM] | Drug uptake [12] | Activity (MDA-MB-231 [13]) | Drug uptake [14]
CCCCn1c2ccc(/C=C/c3ccc(N(c4ccccc4)c4ccccc4)cc3)cc2c2cc(C3=C4C=CC=[N+]4[B-](F)(F)n4cccc43)ccc21 | Active | 0.95 | 1.17 | >19.33 | Active | Active | 22.6 | 13.84 | Active | Active | 13.2 |  |  | 
CCN(CC)CCCC(C)Nc1ccnc2cc(Cl)ccc12 (centres undefined) [CHLOROQUINE] |  | > 50 |  |  |  |  |  |  |  |  | > 50 |  |  | 
CCCCn1c2ccccc2c2cc(/C=C/c3ccc4c(c3)c3cc(C5=C6C=CC=[N+]6[B-](F)(F)n6cccc65)ccc3n4CCCC)ccc21 | Active | 17.1 | 5.57 | >8.97 | Active | Active | > 50 | >2.9 | Active | Active | > 50 | Active | Active | Active
CO[C@H]1C[C@@H]2CC[C@@H](C)[C@@](O)(O2)C(=O)C(=O)N2CCCC[C@H]2C(=O)O[C@H]([C@H](C)C[C@@H]2CC[C@@H](O)[C@H](OC)C2)CC(=O)[C@H](C)/C=C(\C)[C@@H](O)[C@@H](OC)C(=O)[C@H](C)C[C@H](C)/C=C/C=C/C=C/1C [SIROLIMUS] |  | 14.2 |  |  |  |  |  |  |  |  | 11.2 |  |  | 
